Legend:
[1] = In house foaming test (comparative foam heights); assay type: physicochemical; conditions: 1 wt % surfactant solution; relative to 1 wt % Sodium Laureth Sulphate (3EO) = 100
Experimental: A 1 wt % surfactant solution was prepared. The foam heights were measured using an in house foaming test and the results were compared with those obtained using a composition comprising 1 wt % Sodium Laureth Sulphate (3EO) [SLES].

Zein = experiment: In house qualitative test based on the Zein test (irritancy/mildness); assay type: in vitro; conditions: 1% surfactant solution; qualitative comparison
Experimental: The mass of residual Zein is determined gravimetrically.

Molecule | Relative foam height compared to SLES as % [1] [%] | irritancy/mildness (Zein)
CCCCCCCCCCCC(=O)OC[C@H](O)[C@H]1OC(=O)C(O)=C1O [Compound 1, Ascorbyl Monolaurate] | 32 | –
Ascorbyl Monolaurate Sulphate [Compound 2] | 105 | milder than many commercially available personal care surfactants including Sodium Laureth Sulfate (3EO) [SLES]
Sodium Laureth Sulphate (3EO) | 100 | –

Source: patent US9981933B2, “Detergent compositions” (INNOSPEC LIMITED, priority 2013, dated 2018)
